The conditions of series [1]: rats, NSAID co-administered; cited from earlier work.
The test system of a further series is rats. As to conditions: cited from earlier work.
The conditions of series [2]: cited from earlier work.
Series [3] relates to subject with cardiovascular disease. Put plainly: Example 9: treatment of cardiovascular disease with combination therapy. Format: in vivo. As to conditions: about 50-5000 μg daily plus a second therapeutic for cardiovascular disease. How it is done: A subject is identified with cardiovascular disease. […] The subject is provided between about 50 μg and 5000 μg chromium histidinate daily. The subject is also provided a therapeutically effective amount of a second therapeutic for cardiovascular disease such as peripheral antiadrenergic therapy, antihypertensive drugs, vasodilators, inodilators, cardiac glycosides, antidysrhythmic drugs. After a period of time, the subject's arteriosclerosis, atherosclerosis, peripheral vascular disease, or coronary heart disease improves.

In series [4] the test system is subject having a dyslipidemia. Put plainly: Example 14: treatment of dyslipidemia. In kind it is in vivo. As to conditions: about 50-5000 μg daily, orally; one or more of the listed changes. How it is done:
A subject is identified as having a dyslipidemia. […] The subject is administered between about 50 μg and 5000 μg chromium histidinate daily, orally.

The test system of series [5] is Hep G2 cells. Nature of the series: Triglyceride secretion into culture media by HepG2 cells. As to conditions: 0.2 μM, in the presence of insulin; p<0.05 vs control. In kind it is cell-based, human. How it is done: (§1) Hep G2 cells are liver cells derived from a human hepatoblastoma that is free of known hepatotropic viral agents. This cell line expresses a wide variety of liver-specific metabolic functions and is used as a model system to study cholesterol and triglyceride metabolism. The effects of chromium histidinate on triglyceride secretion and on media glucose levels, the HepG2 cell line was grown in culture media with or without insulin in the presence of 0, 0.2, 2, or 20 μM chromium histidinate. Media glucose levels and triglyceride levels were measured using standard protocols. Specifically, triglyceride levels were measured spectrophotometrically through hydrolysis by lipase and coupled enzyme reactions on the resulting glycerol. Glucose levels were measured spectrophotometrically using the glucose oxidase method, with a standard dilution curve serving to calibrate the measurements.

A further series has as its system insulin resistant rats. Put plainly: Glucose and lipid metabolism in insulin resistant rats fed high fat diet (groups 3 and 4). Format: in vivo, Wistar rats. Conditions: approx. 110 mcg/kg body.d in water, 12 weeks. How it is done:
(§2) Wistar rats were reared at the temperature of (22±2° C.), humidity (55±5%) and a 12/12 h light/dark cycle. Pellet food and water were provided ad libitum.
(§3) Fat-fed/STZ treated rats provide an animal model for type 2 diabetes that simulates the human syndrome, and is suitable for the testing of antidiabetic compounds (See, e.g., Reed et al. (2000) Metabolism 49(11):1390-1394). Rats fed a high fat diet can be used as a model system for insulin resistance. Ten Wistar rats (55 days old) in each group were treated as follows:
Group 3: Rats were fed high fat diet (40% of calories as fat) for 12 weeks.
Group 4: Rats were fed high-fat diet (40% of calories as fat) and chromium histidinate (approx. 110 mcg/kg body.d) was included into water for 12 weeks.

The next series relates to diabetic rats. Put plainly: Glucose and lipid metabolism in high fat diet/streptozotocin diabetic rats (groups 5 and 6). Format: in vivo, Wistar rats. Conditions: high-fat diet + STZ 40 mg/kg i.p. rats, 110-mcg/kg body.d in water, 10 weeks. The method, then: as §2, §3
Group 5: Rats were fed high-fat diet (40% of calories as fat) for 2 weeks and then injected with streptozotocin (STZ, 40 mg/kg i.p.) for 12 weeks.
Group 6: Rats were fed high-fat diet (40% of calories as fat) for 2 weeks and then injected with streptozotocin (STZ, 40 mg/kg i.p.) and chromium histidinate was included into water at a concentration of 110-mcg/kg body.d for 10 weeks.
Before STZ injection glucose concentrations of rats were measured and compared to controls.

The subject of series [6] is subject with cardiovascular disease. Put plainly: Example 8: treatment of cardiovascular disease. Conditions: about 50-5000 μg daily. In kind it is in vivo. The method, then: A subject is identified with cardiovascular disease. […] The subject is provided between about 50 μg and 5000 μg chromium histidinate daily. After a period of time, the subject's arteriosclerosis, atherosclerosis, peripheral vascular disease, or coronary heart disease improves.

The test system of series [7] is subject having cardiometabolic syndrome. Nature of the series: Example 3: treatment of cardiometabolic syndrome. In kind it is in vivo. As to conditions: between 50 μg and 5000 μg/day, orally. The method, then:
A subject is identified as having cardiometabolic syndrome. The subject presents with one or more symptoms associated with cardiometabolic syndrome such as obesity, hypertension, dyslipidemia, impaired glucose tolerance, diabetes, an increase in C-reactive protein, and increase in TNFα, an increase in IL-6, an increase in IL-10, or an increase in oxidative stress.
The individual is administered between 50 μg and 5000 μg chromium histidinate complex/day, orally. The chromium histidinate is administered orally.

For series [8], the system named is Hep G2 cells. Nature of the series: Media glucose levels of HepG2 cell cultures. Conditions: 0.2 μM, in the absence of insulin; p<0.05 vs control. In kind it is cell-based, human. The method, then: as §1
The test system of series [9] is subject with a PPAR associated disorder. Put plainly: Example 13: treatment of PPAR disorders. In kind it is in vivo. Conditions: about 50-5000 μg, orally, daily. How it is done: A subject is identified with a PPAR associated disorder. The subject has one or more of the following symptoms or conditions: rheumatoid arthritis, multiple sclerosis, inflammatory bowel disease, breast, colon, or prostate cancer, low levels of blood, lymph and/or cerebrospinal fluid apoE and/or apo A-1, elevated serum VLDL cholesterol levels, elevated serum LDL cholesterol levels, elevated triglyceride levels, elevated serum apo B levels, or the like. The subject is administered between about 50 μg and 5000 μg chromium histidinate, orally, daily. After a period of time, the subject's symptoms improve.

The subject of the next series is normal rats. Nature of the series: Glucose and lipid metabolism in normal rats fed standard diet (groups 1 and 2). As to conditions: standard diet + chromium histidinate 12 weeks. How it is done:
as §2, §3
Group 1: Control rats were fed standard diet (12% of calories as fat) for 12 weeks.
Group 2: Control rats were fed standard diet+chromium histidinate for 12 weeks.

Series [10] has as its system subject having insulin resistance. Put plainly: Example 5: treatment of insulin resistance. In kind it is in vivo. Conditions: about 50-5000 μg daily, orally, in the form of a bar. How it is done: A subject is identified as having insulin resistance. […] The subject is administered between about 50 μg and 5000 μg chromium polyhistidinate daily, orally, in the form of a bar.

Series [11] relates to subject with diabetes or hyperglycemia. Put plainly: Example 11: treatment of glucose metabolism disorders. Format: in vivo. As to conditions: about 50-5000 μg daily, orally. The method, then:
A subject is identified with one or more glucose metabolism disorders such as diabetes or hyperglycemia. The subject is orally administered between about 50 μg and 5000 μg chromium polyhistidinate daily.

The subject of series [12] is subject with compromised renal function. Nature of the series: Example 10: treatment of renal disorders. In kind it is in vivo. As to conditions: between 50 μg and 5000 μg daily. The method, then: A subject is identified with compromised renal function. […] The subject is administered an effective amount of chromium trihistidinate daily, e.g. between 50 μg and 5000 μg chromium trihistidinate daily. After a period of time, the subject's renal function improves.

The subject of the next series is subject having impotence. Nature of the series: Example 6: treatment of sexual dysfunction. Format: in vivo. Conditions: about 50-5000 μg daily, orally. The method, then:
A subject is identified as having impotence. The subject is orally administered between about 50 μg and 5000 μg chromium trihistidinate daily.

The values below come from patent US20220023337A1, “USE OF CHROMIUM HISTIDINATE FOR TREATMENT OF CARDIOMETABOLIC DISORDERS” (NUTRITION 21, LLC, priority 2007, published 2022).

Like-named read-outs stand apart in the source and are kept apart here.

What is called pKa is the negative logarithm of the acid dissociation constant.

For `CC(=O)Oc1ccccc1C(=O)O` [aspirin], the “chromium absorption following oral administration of CrCl3” value in series [1] is “facilitated”.
For the molecule `[Cl][Cr]([Cl])[Cl]` [chromium chloride], the toxic effects entry in the series on rats (rats, levels several thousand times the upper limit of the ESADDI for chromium for humans (based on body weight)) was “without toxic effects”.
In the case of `N[C@@H](Cc1c[nH]cn1)C(=O)O` [histidine], the pKa in series [2] is recorded as approximately 6.0.
For chromium histidinate, the “arteriosclerosis, atherosclerosis, peripheral vascular disease, or coronary heart disease” value in series [3] is listed as “improves”. Besides, in [4], the “serum HDL cholesterol levels” value was “increased”, the “serum LDL cholesterol levels” value was “decreased”, the serum triglyceride levels result is given as “decreased” and the “total serum cholesterol levels” value is “decreased”. For the same molecule, in the series with Hep G2 cells [5], the “triacylglycerol (triglycerides secreted into culture media)” value was “significantly decreased”. In the series with insulin resistant rats, the body weight result was “significantly lowers”, the cortisol levels result was “decreases”, the “free fatty acid levels” value is on record as “decreases” and the insulin levels result was “increases”. For the same molecule, in the series with insulin resistant rats, the insulin sensitivity entry is on record as “increases”, the serum glucose levels result is on record as “lowers”, the “total serum cholesterol levels” value is on record as “decreases” and the triglyceride levels result is listed as “decreases”. Moreover, in the series on diabetic rats, the body weight result is given as “significantly lowers”, the cortisol levels result is recorded as “decreases”, the “free fatty acid levels” value is “decreases” and the insulin levels entry is reported as “increases”. In the series with diabetic rats, the insulin sensitivity result is reported as “increases”, the serum glucose levels entry is on record as “lowers”, the “total serum cholesterol levels” value is recorded as “decreases” and the triglyceride levels entry was “decreases”. In addition, the “arteriosclerosis, atherosclerosis, peripheral vascular disease, or coronary heart disease” value in series [6] is “improves”. In addition, in series [7], the “symptoms associated with cardiometabolic syndrome” value is on record as “reduction in one or more of the symptoms”. For the same molecule, the “glucose in the media” value in the series on Hep G2 cells [8] is reported as “significant decrease”. For the same molecule, in [9], the “symptoms of PPAR associated disorder” value is “improve”. Moreover, in the series on normal rats, the “free fatty acid levels” value was “decreases”, the insulin levels entry is given as “increases”, the insulin sensitivity result is “increases” and the serum chromium levels entry is listed as “increases”. Moreover, in the series on normal rats, the serum glucose levels entry is “lowers”, the serum triglyceride levels entry is “decreases” and the “total serum cholesterol levels” value was “decreases”.
chromium picolinate: the toxic effects entry with rats (rat, in vivo) was “without toxic effects”.
Consider chromium polyhistidinate, for which, in series [10], the hyperinsulinemia result was “decreased” and the insulin function entry is “improved”. Also, in series [11], the “fasting and/or post-prandial glucose levels” value is “improvement”.
Take chromium trihistidinate: the renal function entry in [12] was “improves”. For the same molecule, the sexual function entry in the series on subject having impotence is “improved”.
